Where two headings read alike, the source gives them in different places.
Key:
[1] = tested on: Respiratory Syncytial Virus (RSV) long strain; experiment: microbe, parasite or virus in culture; format: cell-based; details: human respiratory syncytial virus, Tables A and B list compounds by EC50 band
Outline: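 HEp-2 cells infected with 100 TCID50 virus per well, compounds in duplicate, 9-point 1/3 dilutions from 100 μM or 1 μM, 1% DMSO. After 5 days at 37 °C, cell viability (CPE protection) read by CCK-8 absorbance at 450 nm, 630 nm background.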

RSV replicon = experiment: microbe, parasite or virus in culture; format: cell-based; details: human respiratory syncytial virus, read-out: EC50, the concentration of the drug required for reducing RSV replicon RNA by 50%
recombinant RSV complex = recombinant RSV complex (Human respiratory syncytial virus A, UniProt P28887); experiment: RSV Polymerase Inhibition Assay; format: biochemical
Outline: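 10 nM recombinant RSV polymerase complex in Tris-HCl pH 7.5, 6 mM MgCl2 with RNA oligonucleotide template and radionucleotides, incubated 2 h at 30 °C with increasing inhibitor concentrations. Reaction stopped with EDTA; radiolabeled RNA product counted by scintillation.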

[2] = Cytotoxicity Determination (CCK-8, without addition of virus); format: cell-based; details: human
Outline: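 HEp-2 cells were seeded at 1,500 cells/well one day before compound addition. Compounds were tested without virus in duplicate over 7 points from 100 μM in 1/2 steps, with 1% final DMSO, 5 days at 37 °C, 5% CO2. Viability was read by CCK-8 after 3-4 hours.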

[3] = HEp-2, 120 h, read-out: 50% effective concentration (EC50), HEp-2 cells infected with RSV long strain, 5 days, CCK-8 readout
[4] = 50% cytotoxicity concentration (CC50)
[5] = 120 h, read-out: 50% effective concentration (EC50), HEp-2 cells infected with RSV long strain, 5 days, CCK-8 readout

Chain of recombinant RSV complex (P28887 whole entry): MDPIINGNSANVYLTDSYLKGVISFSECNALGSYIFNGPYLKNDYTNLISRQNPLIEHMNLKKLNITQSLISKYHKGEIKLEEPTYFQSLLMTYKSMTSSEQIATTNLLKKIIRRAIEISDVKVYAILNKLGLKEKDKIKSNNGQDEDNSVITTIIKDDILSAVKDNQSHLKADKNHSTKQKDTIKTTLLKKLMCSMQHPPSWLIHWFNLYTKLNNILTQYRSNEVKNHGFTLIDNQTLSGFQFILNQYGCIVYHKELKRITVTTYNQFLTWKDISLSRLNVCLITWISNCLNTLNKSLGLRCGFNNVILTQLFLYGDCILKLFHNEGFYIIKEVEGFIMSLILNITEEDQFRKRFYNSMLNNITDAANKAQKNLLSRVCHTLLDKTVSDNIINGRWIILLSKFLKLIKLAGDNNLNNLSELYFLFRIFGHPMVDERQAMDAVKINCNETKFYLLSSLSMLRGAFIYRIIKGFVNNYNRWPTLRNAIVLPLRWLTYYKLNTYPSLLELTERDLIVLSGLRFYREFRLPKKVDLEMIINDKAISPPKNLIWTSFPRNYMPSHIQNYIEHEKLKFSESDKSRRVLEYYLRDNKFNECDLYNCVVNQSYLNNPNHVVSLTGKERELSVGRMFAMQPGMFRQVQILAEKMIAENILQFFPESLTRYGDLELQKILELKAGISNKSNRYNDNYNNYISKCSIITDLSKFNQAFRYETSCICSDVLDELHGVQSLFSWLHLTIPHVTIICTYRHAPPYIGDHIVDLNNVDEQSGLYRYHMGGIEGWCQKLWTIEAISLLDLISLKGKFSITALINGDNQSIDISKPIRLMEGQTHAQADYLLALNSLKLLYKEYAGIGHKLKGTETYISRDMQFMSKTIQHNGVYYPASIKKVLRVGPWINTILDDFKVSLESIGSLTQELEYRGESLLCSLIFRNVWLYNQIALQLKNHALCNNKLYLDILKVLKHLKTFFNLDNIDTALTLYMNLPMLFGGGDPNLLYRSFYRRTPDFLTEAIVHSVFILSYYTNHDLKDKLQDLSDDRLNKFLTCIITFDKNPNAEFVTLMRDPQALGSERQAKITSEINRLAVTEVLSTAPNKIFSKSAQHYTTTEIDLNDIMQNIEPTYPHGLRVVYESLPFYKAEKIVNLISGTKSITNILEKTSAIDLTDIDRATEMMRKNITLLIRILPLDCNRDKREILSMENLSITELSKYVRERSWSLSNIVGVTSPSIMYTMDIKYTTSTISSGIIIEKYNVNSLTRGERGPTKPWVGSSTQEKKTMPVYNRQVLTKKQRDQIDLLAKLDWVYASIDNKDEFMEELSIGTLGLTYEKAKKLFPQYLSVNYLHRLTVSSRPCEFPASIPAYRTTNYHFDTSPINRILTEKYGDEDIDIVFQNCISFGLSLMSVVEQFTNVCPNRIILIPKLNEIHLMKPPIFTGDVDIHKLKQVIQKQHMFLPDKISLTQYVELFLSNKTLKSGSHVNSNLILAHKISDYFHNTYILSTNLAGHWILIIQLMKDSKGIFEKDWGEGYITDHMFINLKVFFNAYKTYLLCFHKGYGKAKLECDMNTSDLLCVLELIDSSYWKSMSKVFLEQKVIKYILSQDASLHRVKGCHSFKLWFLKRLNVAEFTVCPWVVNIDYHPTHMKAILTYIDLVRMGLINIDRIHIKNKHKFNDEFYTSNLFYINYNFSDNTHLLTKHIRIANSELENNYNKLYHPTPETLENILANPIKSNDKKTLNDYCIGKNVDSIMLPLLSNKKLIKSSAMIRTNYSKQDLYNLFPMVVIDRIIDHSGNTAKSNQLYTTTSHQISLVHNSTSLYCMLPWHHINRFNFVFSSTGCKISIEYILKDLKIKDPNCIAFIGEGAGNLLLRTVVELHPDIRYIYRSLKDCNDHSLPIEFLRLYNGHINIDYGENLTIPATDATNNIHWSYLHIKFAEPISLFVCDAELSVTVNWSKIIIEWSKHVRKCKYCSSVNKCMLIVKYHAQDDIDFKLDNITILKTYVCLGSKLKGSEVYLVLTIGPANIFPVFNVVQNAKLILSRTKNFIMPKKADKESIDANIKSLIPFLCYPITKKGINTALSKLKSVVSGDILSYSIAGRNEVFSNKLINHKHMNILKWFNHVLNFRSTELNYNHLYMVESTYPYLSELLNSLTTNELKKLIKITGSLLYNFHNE
Chain of recombinant RSV complex (P03421 whole entry, further chain): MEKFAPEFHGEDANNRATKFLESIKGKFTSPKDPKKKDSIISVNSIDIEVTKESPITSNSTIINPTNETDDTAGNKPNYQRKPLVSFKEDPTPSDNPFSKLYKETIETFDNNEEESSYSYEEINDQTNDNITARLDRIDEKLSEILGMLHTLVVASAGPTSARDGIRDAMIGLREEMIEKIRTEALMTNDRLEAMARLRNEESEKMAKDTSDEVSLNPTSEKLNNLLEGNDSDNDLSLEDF

Structure (SMILES) | EC50 [1, 3] | EC50 (RSV replicon) | IC50 (recombinant RSV complex) | CC50 at 5 days [2, 4] | CC50 at 5 days ([2]; no virus, 5 days, CCK-8 readout, Tables C and D list compounds by CC50 band) | EC50 [1, 5]
COc1cc(C(=O)NCC(O)(c2ccc(OC)c(-c3ccc(F)c(Cl)c3)n2)C(F)F)ccc1OC[C@@H](C)O (stereo partly shown) [Compound 444] | < 1000 nM | < 1000 nM | < 1000 nM | 10 to 100 µM |  | 
COc1cc(C(=O)NCC(O)(c2ccc(OC)c(-c3ccc(F)c(Cl)c3)n2)C(F)F)ccc1OC1CC1 (stereo not shown) [Compound 445] | < 1000 nM | < 1000 nM | < 1000 nM | 10 to 100 µM |  | 
CNc1cc(-c2ccc(F)c(Cl)c2)nc(C(O)(CNC(=O)c2ccc(OC3CC3)c(OC)c2)C(F)(F)F)c1 (stereo not shown) [Compound 448] | < 1000 nM | < 1000 nM | < 1000 nM | 10 to 100 µM |  | 
COc1ccc(C(O)(CO)CNC(=O)c2ccc(OC3CCNC3=O)c(Cl)c2)nc1-c1ccc(F)c(Cl)c1 (stereo not shown) [Compound 452] | < 1000 nM | < 1000 nM | < 1000 nM | 10 to 100 µM |  | 
COc1ccc(C(O)(CO)CNC(=O)c2cc(OC)c3ncccc3c2)nc1-c1ccc(F)c(Cl)c1 (stereo not shown) [Compound 453] | < 1000 nM | < 1000 nM | < 1000 nM | 10 to 100 µM |  | 
COc1cc(C(=O)NCC(O)(c2ccc(OC)c(-c3ccc(F)c(Cl)c3)n2)C(C)O)ccc1OC1CC1 (stereo not shown) [Compound 454] | < 1000 nM | < 1000 nM | < 1000 nM | 10 to 100 µM |  | 
COc1cc(C(=O)NCC(O)(c2cc(C(C)N)cc(-c3ccc(F)c(Cl)c3)n2)C(F)(F)F)ccc1OC1CC1 (stereo not shown) [Compound 459] | < 1000 nM | < 1000 nM | < 1000 nM |  | 10 to 100 µM | 
COc1cc(C(=O)NCC(C)(O)c2cc(C(C)(C)N)cc(-c3ccc(F)c(Cl)c3)n2)ccc1OC1CC1 (stereo not shown) [Compound 460] |  | < 1000 nM | < 1000 nM | 10 to 100 µM |  | < 1000 nM
COc1cc(C(=O)NCC(O)(CC2CNC2)c2ccc(OC)c(-c3ccc(F)c(Cl)c3)n2)ccc1OC1CC1 (stereo not shown) [Compound 461] | < 1000 nM | 1000 to 50000 nM | < 1000 nM | 10 to 100 µM |  | 
COc1cc(C(=O)NCC(O)(CN2CCC2)c2ccc(OC)c(-c3ccc(F)c(Cl)c3)n2)ccc1OC1CC1 (stereo not shown) [Compound 462] | < 1000 nM | < 1000 nM | < 1000 nM | 10 to 100 µM |  | 
CNC(C)c1cc(-c2ccc(F)c(Cl)c2)nc(C(O)(CNC(=O)c2ccc(OC3CC3)c(OC)c2)C(F)(F)F)c1 (stereo not shown) [Compound 466] | < 1000 nM | < 1000 nM | < 1000 nM | 10 to 100 µM |  | 
COc1cc(C(=O)NCC(C)(O)c2cc(C(C)(C)C)cc(-c3ccc(F)c(Cl)c3)n2)ccc1OCCO (stereo not shown) [Compound 467] | < 1000 nM | < 1000 nM | < 1000 nM | 10 to 100 µM |  | 
COc1cc(C(=O)NCC(O)(c2ccc(OC)c(-c3ccc(F)c(Cl)c3)n2)C(F)(F)F)ccc1OC1CC(F)C1 (stereo not shown) [Compound 470] |  | < 1000 nM | < 1000 nM | > 100 µM |  | < 1000 nM
COc1cc(C(=O)NCC(O)(c2cc3c(c(-c4ccc(F)c(Cl)c4)n2)OCC3(C)N)C(F)(F)F)ccc1OC1CC1 (stereo not shown) [Compound 483] | < 1000 nM | < 1000 nM | < 1000 nM | 10 to 100 µM |  | 
CNC(C)(C)c1cc(-c2ccc(F)c(Cl)c2)nc(C(O)(CNC(=O)c2ccc(O[C@H]3CCNC3=O)c(OC)c2)C(F)(F)F)c1 (stereo partly shown) [Compound 485] | < 1000 nM | < 1000 nM | < 1000 nM | 10 to 100 µM |  | 
CNC(C)(C)c1cc(-c2ccc(F)c(Cl)c2)nc(C(O)(CNC(=O)c2ccc(OC[C@@H](C)O)c(OC)c2)C(F)(F)F)c1 (stereo partly shown) [Compound 486] | < 1000 nM | < 1000 nM | < 1000 nM | 10 to 100 µM |  | 

Structure (SMILES) | EC50 [1, 3] | EC50 (RSV replicon) | IC50 (recombinant RSV complex) | CC50 at 5 days [2, 4] | CC50 at 5 days ([2]; no virus, 5 days, CCK-8 readout, Tables C and D list compounds by CC50 band) | EC50 [1, 5]
CNC(C)(C)c1cc(-c2ccc(F)c(Cl)c2)nc(C(O)(CNC(=O)c2ccc(OCC(N)=O)c(OC)c2)C(F)(F)F)c1 (stereo not shown) [Compound 487] | < 1000 nM | < 1000 nM | < 1000 nM | 10 to 100 µM |  | 
CNC(C)(C)c1cc(-c2ccc(F)c(Cl)c2)nc(C(O)(CNC(=O)c2cc(OC)c3ncccc3c2)C(F)(F)F)c1 (stereo not shown) [Compound 488] | < 1000 nM | < 1000 nM | < 1000 nM | 10 to 100 µM |  | 
COc1cc(C(=O)NCC(O)(c2cc(C(C)(C)N)cc(-c3ccc(F)c(Cl)c3)n2)C(F)(F)F)ccc1OCCO (stereo not shown) [Compound 489] | < 1000 nM | < 1000 nM | < 1000 nM | 10 to 100 µM |  | 
COc1cc(C(=O)NCC(O)(c2cc(C(C)(C)N)cc(-c3ccc(F)c(Cl)c3)n2)C(F)(F)F)ccc1OCCOC(=O)C(C)C (stereo not shown) [Compound 490] | < 1000 nM | < 1000 nM | < 10000 nM | 10 to 100 µM |  | 
CNC(C)(C)c1cc(-c2ccc(F)c(Cl)c2)nc(C(O)(CNC(=O)c2ccc(OCCO)c(OC)c2)C(F)(F)F)c1 (stereo not shown) [Compound 491] | < 1000 nM | < 1000 nM | < 1000 nM | 10 to 100 µM |  | 
COc1cc(C(=O)NC[C@](O)(c2cc(C(C)(C)N)cc(-c3ccc(F)cc3)n2)C(F)(F)F)ccc1OC1CC1 [Compound 496] | < 1000 nM | < 1000 nM | < 1000 nM | 10 to 100 µM |  | 
CCOc1ccc(C(=O)NCC(O)(c2cc3c(c(-c4ccc(F)c(Cl)c4)n2)OCC3(C)N)C(F)(F)F)cc1OC (stereo not shown) [Compound 498] | < 1000 nM | < 1000 nM | < 1000 nM | 10 to 100 µM |  | 
COC(=O)CNC(C)(C)c1cc(-c2ccc(F)c(Cl)c2)nc(C(O)(CNC(=O)c2ccc(OC3CC3)c(OC)c2)C(F)(F)F)c1 (stereo not shown) [Compound 500] |  | < 1000 nM | < 1000 nM | 10 to 100 µM |  | < 1000 nM
COc1cc(C(=O)NCC(O)(c2cc(C(C)(C)NCCO)cc(-c3ccc(F)c(Cl)c3)n2)C(F)(F)F)ccc1OC1CC1 (stereo not shown) [Compound 502] | < 1000 nM | < 1000 nM | < 1000 nM | 10 to 100 µM |  | 
COc1cc(C(=O)NCC(N)(c2ccc(OC)c(-c3ccc(F)c(Cl)c3)n2)C(F)(F)F)ccc1OC1CC1 (stereo not shown) [Compound 503] | < 1000 nM | < 1000 nM | < 1000 nM | 10 to 100 µM |  | 
COc1cc(C(=O)NCC(N)(c2cc(C(C)(C)N)cc(-c3ccc(F)c(Cl)c3)n2)C(F)(F)F)ccc1OC1CC1 (stereo not shown) [Compound 504] | < 1000 nM | < 1000 nM | < 1000 nM | 10 to 100 µM |  | 
COc1cc(C(=O)NCC(O)(c2cc(C3(C)CCNC3)cc(-c3ccc(F)cc3)n2)C(F)(F)F)ccc1OC1CC1 (stereo not shown) [Compound 507] | < 1000 nM | < 1000 nM | < 1000 nM | 10 to 100 µM |  | 
COc1cc(C(=O)NCC(O)(c2ccc(CN)c(-c3ccc(F)cc3)n2)C(F)(F)F)ccc1OC1CC1 (stereo not shown) [Compound 514] | < 1000 nM | < 1000 nM | < 1000 nM | 10 to 100 µM |  | 
COc1cc(C(=O)NCC(O)(c2cc(C(C)(C)NCC(=O)O)cc(-c3ccc(F)c(Cl)c3)n2)C(F)(F)F)ccc1OC1CC1 (stereo not shown) [Compound 515] | < 1000 nM | < 1000 nM | < 1000 nM | 10 to 100 µM |  | 
COc1cc(C(=O)NCC(O)(c2cc(C(C)(C)NC(N)=O)cc(-c3ccc(F)c(Cl)c3)n2)C(F)(F)F)ccc1OC1CC1 (stereo not shown) [Compound 516] | < 1000 nM | < 1000 nM | < 1000 nM | 10 to 100 µM |  | 

From patent US11021444B2, “Antiviral compounds” (priority 2013, dated 2021)
